“Also recorded” adds a separate entry of the source.
Tests used:
[1] = Urinary excretion after intravenous administration; format: in vivo, Wistar ST rats
Description: SPF Wistar ST rats (6 weeks of age, male, 180 ± 20 g of body weight) were purchased from Japan SLC Inc. (Hamamatsu, Japan). The rats were housed in an air-conditioned room at 22 ± 2°C under cycles of 12 hours dark and 12 hours light and given free access to a commercial diet and water for a week. The rats were then fasted for over 16 hours before the experiments. The present study was approved by the Animal Care and Use Committee at Kagawa University, and the rat treatment conformed to the Rules of Animal Experiments at Kagawa University. 3,4-[…] (300 mg/kg body weight; 936.51 μmol/kg) dissolved in 50% polyethylene glycol aqueous solution was administered orally via a stomach tube to the portal vein cannulated rats. Blood samples (450 μL) were then collected using a heparinized syringe attached to the cannula before administration and 5, 15, 30, 60, 120, and 240 min after administration. Urine was also collected before administration and 0 to 2 h and 2 to 4 h after administration. For intravenous administration, 3,4-[…] (10 mg/kg; 31.22 μmol/kg) was injected into the jugular vein, and blood (450 μL) was collected using a heparinized syringe before administration and 5, 15, 30, 60, 120, and 240 min after administration via the jugular vein cannula. The blood (450 μL) collected was immediately cooled on ice and centrifuged at 15,000 rpm for 5 min at 4°C to obtain over 200 μL plasma. Urine was also collected before administration and 0 to 2 h and 2 to 4 h after administration. Bile was collected via the bile duct cannula before administration and 0 to 2 h and 2 to 4 h after intravenous administration. The collected plasma, urine, and bile were immediately stored in an ice box until further analyses. HT (oral administration: 100 mg/kg; 648.66 μmol/kg, intravenous administration: 10 mg/kg; 64.87 μmol/kg) and Ole (oral administration: 300 mg/kg; 555.02 μmol/kg, intravenous administration: 10 mg/kg; 18.50 μmol/kg) were investigated using the same method as described above. Metabolites were deconjugated by using β-glucuronidase (500 U) and sulfatase (50 U) in 50 μL 625 mM MOPS (pH 6.8), which was added to 200 μL of plasma, urine, or bile. The mixture was incubated for 45 min at 37°C and subjected to extraction using QuEChERS [33]. […] Shimadzu, Kyoto, Japan) equipped with a Shim-pack XR-ODS column (3.0 mm I.D. × 100 mm; Shimadzu, Kyoto, Japan) at 40°C with a mobile phase of 0.5% TFA-1% acetonitrile aqueous solution (A) and 0.5% TFA-75% acetonitrile aqueous solution (B). The elution conditions are described as follows: isocratic elution of 0% B was maintained for 4.0 min; linear gradient 0 to 4% B, 4.0-4.5 min; linear gradient 4.0-16.0% B, 4.5-16.0 min; linear gradient 16.0-100% B, 16.0-25.0 min; isocratic elution of 100% B, 25.0-26.0 min; and linear gradient 100 to 0% B, 26.0-26.1 min, with a flow rate of 0.5 mL/min. Injection volume was 50 μL. All eluted peaks were detected at 279 nm with a diode array detector (SPD-M20A; Shimadzu, Kyoto, Japan).

[2] = Recovery of 3,4-DHPEA-EDA spiked into rat plasma; format: in vitro ADME; conditions: recovery yield check
Description: After oral administration of 3,4-DHPEA-EDA, HT (27.7 AUC0→4 h-i.g./Dosei.g.), HVAOH (4.2 AUC0→4 h-i.g./Dosei.g.), and HVA (4.5 AUC0→4 h-i.g./Dosei.g.) were detected in the portal plasma. Low absorption of 3,4-DHPEA-EDA is reported in some papers. […] Plasma components such as serum albumin, serum lipoprotein, and glycoprotein may have bound 3,4-DHPEA-EDA and hindered its detection. 3,4-DHPEA-EDA as a dialdehyde form might quickly bind to proteins bearing primary amines such as globulins, albumins, and other functional proteins in blood plasma, as malondialdehyde does. […] To our knowledge, this is the first report of the formation of HVAOH from 3,4-DHPEA-EDA.

| Detection of intact Ole and metabolites in urine ([1]; listed as Ole) | HT in urine [1] | HVA in urine [1] | HVAOH in urine [1] | Total metabolites observed in the urine [1] [%] | Recovery of 3,4-DHPEA-EDA spiked into rat plasma [2] | Compound | Detection of intact 3,4-DHPEA-EDA in urine [1] |
| --- | --- | --- | --- | --- | --- | --- | --- |
| not detected at all |  |  |  |  |  | C/C=C1/[C@H](O[C@@H]2O[C@H](CO)[C@@H](O)[C@H](O)[C@H]2O)OC=C(C(=O)OC)[C@H]1CC(=O)OCCc1ccc(O)c(O)c1 [Oleuropein, reference compound] |  |
|  | 6.3 % of dose | 2.6 % of dose | 4.6 % of dose | 13 | could not be detected | CC=C(C=O)C(CC=O)CC(=O)OCCc1ccc(O)c(O)c1 (stereo not shown) [3,4-DHPEA-EDA, 3,4-dihydroxyphenylethyl elenolate dialdehydic form] | not observed; also recorded: not detected |
